“Also recorded” adds a separate entry of the source. Read-outs that look alike come from different tables or passages of the source.
Tests used:
[1] = test system: colonic tumor of mouse, colon 26; test: Antitumor Activity Tests (2) and (3): complete regression of colon 26 tumor in CDF1 mice (Example 2); type: in vivo; conditions: palpation on 60th day
Method: (§1) Stilbene derivatives of formulas (3), (4) and (5), and Cisplatin and Carboplatin were bolusly injected into the tail vein on the 7th, 11th and 15th days as described in Tables 3 through 6 below.
Antitumor effects: Complete regression of the colonic tumor was determined by palpation. Subjects in which the tumor had not been ascertained by palpation on the 60th day were deemed to have their tumors completely cured.
(§2) The terms: [+CBDCA] and [+CDDP] indicate that 50 mg/kg/day of carboplatin or 5 mg/kg/day of cisplatin were administered, respectively. The terms: [−CBDCA] and [−CDDP] indicate that no carboplatin or cisplatin were administered. The dosages of cisplatin and carboplatin denote the maximum dosages without death due to toxicity in the administration schedule in the present embodiment.

[2] = Safety Tests (2) and (3): rate of body weight change in colon 26 tumor-bearing CDF1 mice (Example 2); type: in vivo; conditions: 21st day vs 7th day
Method: as §1, §2
Body weight change on the 21st day was calculated using the equation described in Example 1.

[3] = test system: murine colonic tumor, colon 26; test: Antitumor Activity Test (1): complete regression of colon 26 tumor in CDF1 mice (Example 1); type: in vivo; conditions: for Number of instances of complete regression of tumors: palpation on 60th day; for Complete regression (curing) of tumors in mice, in words: in combination with Cisplatin
Method: Antitumor effects: Complete regression of the colonic tumor was determined by palpation. Subjects in which the tumor has not been ascertained by palpation on the 60th day were deemed to have their tumors cured completely.

[4] = for Rate of Body Weight Change: 21st day vs 7th day; for Body weight decrease, in words: in combination with Cisplatin
Method: Methodology. 10 mg of a murine colonic tumor, colon 26, was inoculated under the skin of the back of CDF1 mice (day 0). After one week, the tumor was measured to calculate the volume of the tumor and the mice were classified into several groups (each group: n=5) and administration of the stilbene derivative and Cisplatin was started. On days 7, 11 and 15, the tumor-inoculated mice were bolusly injected under the skin of their backs and into their tail veins with 1 mg of the stilbene derivative of formula (3) in 1 ml of physiological saline solution and 0.5 mg of Cisplatin (“randa Inj”) in a volume of 1 ml. Control and comparative groups of mice were similarly injected with the other drug combinations described in Table 1. The comparative drug Vindesine is an antitumor drug used in combination with Cisplatin by Garalla et al. VP-16 is also a chemotherapeutic drug which is often used clinically in combination with Cisplatin.
As indicated in Table 1 the term [−CDDP] means that Cisplatin was not administered at all. The term [+CDDP] means that Cisplatin was administered in an amount of 5 mg/kg/day. The term [n.d.] means that no testing was performed.
Safety. The rate of body weight change was used as a measure of safety as significant loss of body weight is undesirable in cancer patients. Body weight change was calculated using the following equation: Rate of body weight change (%)=[{(body weight−weight of the tumor) at the 21st day}−{(body weight−weight of the tumor) at the 7th day}]/{body weight−weight of the tumor) at the 7th day}×100.
Using the above equation, the rate of body weight change at the 21st day was calculated.

[5] = Solubility in water (statement)
[6] = Control, +CBDCA: carboplatin alone 50 mg/kg/day
[7] = Control, +CDDP: cisplatin alone 5 mg/kg/day
[8] = +CDDP (cisplatin 5 mg/kg/day), sample 5 mg/kg/day

[NH2][Pt]1([NH2])[O]C(=O)C2(CCC2)C(=O)[O]1 [CBDCA, diammine(1,1-cyclobutane dicarboxylate) platinum (II), reference compound]
Number of instances of complete regression of tumors [1, 6]: 0/6
Rate of Body Weight Change [2, 6]: −9.6%

N.N.[Cl][Pt][Cl] [CDDP, cis-diamminedichloroplatinum (II), reference compound]
Number of instances of complete regression of tumors [1, 7]: 0/6
Number of instances of complete regression of tumors ([3]; Control, +CDDP: Cisplatin alone 5 mg/kg/day on days 7, 11, 15): 0/5
Rate of Body Weight Change [2, 7]: −11.4%
Rate of Body Weight Change [4, 7]: −11.1%

COc1ccc(/C=C\c2cc(OC)c(OC)c(OC)c2)cc1NC(=O)C(N)CO [Compound (3), (Z)-1-(3-amino-4-methoxyphenyl)-2-(3,4,5-trimethoxyphenyl)-ethene-L-serine amide]
Solubility in water, in words [5]: soluble in water
Number of instances of complete regression of tumors ([1]; +CBDCA (carboplatin 50 mg/kg/day), sample 20 mg/kg/day, tail vein, 7th, 11th, 15th days): 1/6
Number of instances of complete regression of tumors ([1]; −CBDCA, sample 20 mg/kg/day, tail vein, 7th, 11th, 15th days): 0/6
Number of instances of complete regression of tumors ([3]; +CDDP (Cisplatin 5 mg/kg/day), sample 5 mg/kg/day on days 7, 11, 15): 1/5
Number of instances of complete regression of tumors ([3]; +CDDP (Cisplatin 5 mg/kg/day), sample 10 mg/kg/day on days 7, 11, 15): 4/5
Number of instances of complete regression of tumors ([3]; −CDDP, sample 10 mg/kg/day on days 7, 11, 15): 0/5
Rate of Body Weight Change ([2]; +CBDCA (carboplatin 50 mg/kg/day), sample 20 mg/kg/day): 1.8%
Rate of Body Weight Change ([2]; −CBDCA, sample 20 mg/kg/day): −7.4%
Rate of Body Weight Change ([4]; +CDDP (Cisplatin 5 mg/kg/day), sample 10 mg/kg/day): −1.9%
Rate of Body Weight Change [4, 8]: −4.2%
Body weight decrease, in words [4]: did not cause significant decreases in body weight
Rate of Body Weight Change ([4]; −CDDP, sample 10 mg/kg/day, tumor weight subtracted): −7.7%

COc1ccc(/C=C(/C#N)c2cc(OC)c(OC)c(OC)c2)cc1N [Compound (4)]
Number of instances of complete regression of tumors ([1]; +CDDP (cisplatin 5 mg/kg/day), sample 5 mg/kg/day, tail vein, 7th, 11th, 15th days): 4/6
Number of instances of complete regression of tumors ([1]; −CDDP, sample 5 mg/kg/day, tail vein, 7th, 11th, 15th days): 0/6
Rate of Body Weight Change [2, 8]: −13.9%
Rate of Body Weight Change ([2]; −CDDP, sample 5 mg/kg/day): −7.0%

COc1ccc(/C=C\c2cc(OC)c(OC)c(OC)c2)cc1N [Compound (5)]
Number of instances of complete regression of tumors ([1]; +CDDP (cisplatin 5 mg/kg/day), sample 20 mg/kg/day, tail vein, 7th, 11th, 15th days): 6/6
Number of instances of complete regression of tumors ([1]; −CDDP, sample 20 mg/kg/day, tail vein, 7th, 11th, 15th days): 0/6
Rate of Body Weight Change ([2]; +CDDP (cisplatin 5 mg/kg/day), sample 20 mg/kg/day): −0.3%
Rate of Body Weight Change ([2]; −CDDP, sample 20 mg/kg/day): −2.1%

COc1cc([C@@H]2c3cc4c(cc3[C@@H](O[C@@H]3O[C@@H]5CO[C@@H](C)O[C@H]5[C@H](O)[C@H]3O)[C@H]3COC(=O)[C@H]23)OCO4)cc(OC)c1O [VP-16, reference compound]
Number of instances of complete regression of tumors ([3]; +CDDP (Cisplatin 5 mg/kg/day), sample 30 mg/kg/day on days 7, 11, 15): 0/5
Complete regression (curing) of tumors in mice, in words [3]: complete tumor regression was not observed
Number of instances of complete regression of tumors ([3]; −CDDP, sample 30 mg/kg/day on days 7, 11, 15): 0/5
Rate of Body Weight Change ([4]; +CDDP (Cisplatin 5 mg/kg/day), sample 30 mg/kg/day): −9.9%
Body weight decrease, in words [4]: high rates of body weight loss
Rate of Body Weight Change ([4]; −CDDP, sample 30 mg/kg/day): −1.0%

CC[C@]1(O)C[C@@H]2CN(CCc3c([nH]c4ccccc34)[C@@](C(=O)OC)(c3cc4c(cc3OC)N(C)[C@H]3[C@@](O)(C(N)=O)[C@H](O)[C@]5(CC)C=CCN6CC[C@]43[C@@H]65)C2)C1 [Vindesine]
Number of instances of complete regression of tumors ([3]; +CDDP (Cisplatin 5 mg/kg/day), sample 2 mg/kg/day on days 7, 11, 15): 0/5
Complete regression (curing) of tumors in mice, in words [3]: complete curing of tumors in mice has not been observed; also recorded: complete tumor regression was not observed
